Reference: patent publication US5641774A, “Compounds useful as antiproliferative agents and garft inhibitors” (Agouron Pharmaceuticals, Inc., priority 1995, dated 1997)

Assays:
GARFT = details: Muggia, New Drugs, Concepts and Results in Cancer Chemotherapy, 1992; cited from earlier work
CCRF-CEM = assay: In vitro growth inhibition of CCRF-CEM cells, Example 2 (MTT); format: cell-based; details: Homo sapiens, continuous exposure (title: 72-hour; method: 5 days), mean IC50, read-out: IC50 Cell Culture CCRF-CEM
Procedure: All cultures were maintained at 37° C. 5% air-CO2 in a humidified incubator.
Stock solutions of the inhibitors were prepared in 10 mM sodium bicarbonate in water and stored in i ml aliquots at -20° C. for cell culture experiments. Cell growth inhibition was measured by a modification of the method of Mosmann, J. Immunol. Methods 65 (1983), 55-63.
Mid-log phase cells of each cell line were diluted to 18,500 cells/ml in fresh RPMI growth medium (Mediatech, Washington, D.C.) supplemented with dialyzed fetal calf serum (Hyclone Laboratories Inc., Logan, Utah) and then aliquotted into columns 2 through 12 of 96-well microtiter plates. Column 1 was filled with the same volume ([…]) of fresh medium, without cells, for use as a blank. The plates were then placed in a 37° C., 5% air-CO2 incubator. After 1 to 4 hours, plates were removed from the incubator followed by addition of Compound (21) at 10× final concentration, […] in binary dilutions, to columns 12 to 4. […] The extent of metabolized MTT was measured spectrophotometrically at 540 nm on a Molecular Devices Vmax™ kinetic microplate reader. The concentration of drug required to reduce cell growth by 50% as measured by MTT metabolism was determined by interpolation between the O.D. (minus blank) immediately above and below 50% of control O.D. (minus blank). […]

6C3HED lymphosarcoma = assay: In vivo antitumor activity, 6C3HED lymphosarcoma implanted subcutaneously in C3H/He female mice
Procedure: On day zero, 2 mm^2 trocar fragments of 6C3HED lymphosarcoma were implanted subcutaneously in the axillary region into groups of six C3H/He female mice. Starting on day 1, the test compound was administered intraperitoneally in 40% Encapsin given once daily for nine days. Control animals received identical treatment without test compound. The percentage inhibition given in Table 5 below was calculated by comparing the mass of the control tumors (receiving diluent only) on day 11 to those of animals receiving test compound.

[1] = test system: C3H/BA mammary adenocarcinoma; assay: In vivo antitumor activity, C3H/BA mammary adenocarcinoma implanted subcutaneously in C3H/He female mice; details: day 14
Procedure: On day zero, 2 mm^2 trocar fragments of C3H/BA mammary adenocarcinoma were implanted subcutaneously in the axillary region into groups of six C3H/He female mice. Starting on day 1, the test compound was administered intraperitoneally in 40% Encapsin given once daily for nine days. Control animals received identical treatment without test compound. The percentage of inhibition was calculated by comparing the mass of the control tumors (receiving diluent only) on day 14 to those of animals receiving test compound.

| SMILES | GARFT inhibition and antitumor activity (literature) (GARFT) | IC50 (CCRF-CEM) [nM] | % Inhibition (tumor mass) (6C3HED lymphosarcoma; 12.5 mg/kg i.p. once daily for nine days, day 11) [%] | % Inhibition (tumor mass) (6C3HED lymphosarcoma; 25 mg/kg i.p. once daily for nine days, day 11) [%] | % Inhibition (tumor mass) (6C3HED lymphosarcoma; 50 mg/kg i.p. once daily for nine days, printed as a word in the % Inhibition column) | % Inhibition (tumor mass) ([1]; 5 mg/kg i.p. once daily for nine days) [%] | % Inhibition (tumor mass) ([1]; 10 mg/kg i.p. once daily for nine days) [%] | % Inhibition (tumor mass) ([1]; 20 mg/kg i.p. once daily for nine days) [%] |
| --- | --- | --- | --- | --- | --- | --- | --- | --- |
| Nc1nc2c(c(=O)[nH]1)CC(CCc1ccc(C(=O)N[C@@H](CCC(=O)O)C(=O)O)cc1)CN2 (some centres unmarked) [5,10-dideazatetrahydrofolic acid] | specific tight binding inhibitor of GARFT, 5,10-dideazatetrahydrofolic acid, has been reported to show antitumor activity | – | – | – | – | – | – | – |
| Nc1nc2c(c(=O)[nH]1)SC(CCc1ccc(C(=O)N[C@@H](CCC(=O)O)C(=O)O)s1)CN2 (stereo partly drawn) [Compound 21, 4-[2-(2-Amino-4-oxo-4,6,7,8-tetrahydro-3H-pyrimido[5,4-6][1,4]thiazin-6-yl)-ethyl]-2,5-thienoylamino-L-glutamic acid] | – | 4.3 | 100 | 100 | toxic | 16 | 84 | 100 |
